{"source": "patent US5426103A", "about": "“Certain macrocyclic lactam derivatives” (Ciba-Geigy Corporation, priority 1993, dated 1995)", "key": {"plasma ANF": {"tested_on": "plasma ANF", "assay": "effect on rat plasma ANF concentration in ANF-infused conscious rats", "type": "in vivo, rat (male Sprague-Dawley)", "details": "about 1-10 mg/kg p.o., ANF infusion 450 ng/kg/min i.v.", "method": "The effect of the compounds of the invention on rat plasma ANF concentration can be determined as follows:\nMale Sprague-Dawley rats (275-390 g) are anesthetized with ketamine (150 mg/kg)/acepromazine (10%) and instrumented with catheters in the femoral artery and vein to obtain blood samples and infuse ANF, respectively. The rats are tethered with a swivel system and are allowed to recover for 24 hours before being studied in the conscious, unrestrained state.\nIn this assay, plasma ANF levels are determined in the presence and absence of NEP inhibition. On the day of study, all rats are infused continuously with ANF at 450 ng/kg/min. i.v. for the entire 5 hours of the experiment. Sixty minutes after beginning the infusion, blood samples for baseline ANF measurements are obtained (time 0) and the rats are then randomly divided into groups treated with the test compound or vehicle. Additional blood samples are taken 30, 60, 120, 180 and 240 minutes after administration of the test compound.\nPlasma concentrations are determined by a specific radioimmunoassay. […] The supermatant is decanted and the pellets counted in a gamma counter. […] Plasma ANF levels are expressed as a percent of those measured in vehicle-treated animals which received ANF alone (450 ng/kg/min i.v.)."}, "ANF-induced natriuresis": {"tested_on": "ANF-induced natriuresis", "assay": "potentiation of the natriuretic effect of ANF in anesthetized rats", "type": "in vivo, rat (male Sprague-Dawley)", "details": "rat, 30 mg/kg in polyethylene glycol 400, intraduodenally; ANF 1 μg/kg i.v. bolus", "method": "The potentiation of the natriuretic effect of ANF can be determined as follows: Male Sprague-Dawley rats (280-360 g) are anesthetized with Inactin (100 mg/kg i.p.) and instrumented with catheters in the femoral artery, femoral vein and urinary bladder to measure arterial pressure, administer ANF and collect urine, respectively. A continuous infusion of normal saline (33 μl/min) is maintained throughout the experiment to promote diuresis and sodium excretion. The experimental protocol consists of an initial 15 minute collection period (designated as pre-control) followed by three additional collection periods. Immediately after completion of the pre-control period, test compound or vehicle is administered; nothing is done for the next 45 minutes. […] At the conclusion of this period, ANF is administered (1 μg/kg i.v. bolus) to all animals and arterial pressure and renal parameters are determined during two consecutive 15 minutes collection periods. Mean arterial pressure, urine flow and urinary sodium excretion are determined for all collection periods. Blood pressure is measured with a Gould p50 pressure transducer, urine flow is determined gravimetrically, sodium concentration is measured by flame photometry, and urinary sodium excretion is calculated as the product of urine flow and urine sodium concentration."}, "[1]": {"tested_on": "DOCA-salt hypertensive rats", "assay": "antihypertensive effect in DOCA-salt hypertensive rats", "type": "in vivo", "details": "DOCA-salt hypertensive rat, 30 mg/kg p.o. in 3% corn starch", "method": "The antihypertensive effect can be determined in desoxycorticosterone acetate (DOCA)-salt hypertensive rats. DOCA-salt hypertensive rats (280-380 g) are prepared by the standard method. Rats underwent a unilateral nephrectomy and one week later are implanted with silastic pellets containing 100 mg/kg of DOCA. The rats are maintained on 1% NaCl/0.2% KCl drinking water for three to five weeks until sustained hypertension is established. The antihypertensive activity is evaluated at this time. Two days before an experiment, the rats are anesthetized with methoxyflurane and instrumented with catheters in the femoral artery to measure arterial blood pressure. Forty-eight hours later, baseline arterial pressure and heart rate are recorded during a 1 hour period. The test compound (30 mg/kg p.o.) or vehicle is then administered and the same cardiovascular parameters are monitored for an additional 5 hours."}}, "data": [{"smiles": "CC(=O)SC[C@H]1CCCCCC[C@H](C(=O)N2C[C@H](O)C[C@H]2C(=O)OCc2ccccc2)NC1=O", "note": "[N-[[trans 3-(acetylthiomethyl)-2-oxo-1-azacyclodecan-10-yl]-carbonyl]-trans-4-hydroxy-L-proline benzyl ester]", "values": [{"measurement": "increase in plasma ANF levels", "setting": "plasma ANF", "value": "significant increases in plasma ANF levels"}, {"measurement": "potentiation of ANF-induced natriuresis", "setting": "ANF-induced natriuresis", "value": "significant potentiation of ANF-induced natriuresis"}, {"measurement": "reduction in blood pressure", "setting": "[1]", "value": "significant reduction in blood pressure"}]}]}
